As a reminder, the IC50 is the concentration that inhibits the measured activity by half.

This is an account of results in patent US12565490B2, “Inhibitors of Receptor Interacting Protein Kinase I for the treatment of disease” (Board of Regents, The University of Texas System, priority 2020, dated 2026).

The assay deals with human monocytic cell line U937. Briefly: Human U937 cellular necroptosis assay. The following applies: U-937; U937 cells stimulated with 25 ng/mL human TNFalpha and 25 μM z-VAD-FMK; 22 hr; viability by Cell Titer-Glo 2.0; read-out: hU937 IC50. The assay is classed as cell-based. The procedure, abridged: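 U937 cells (5000/well) driven to necroptosis by 25 ng/mL human TNFalpha plus 25 μM z-VAD-FMK alongside 1:3-diluted compounds, 22 hr at 37° C, 5% CO2. Viability by CellTiter-Glo luminescence; IC50 from four-parameter logistic fit.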
(In general: Cellular ATP, detected with luciferase, serves as a proxy for viable cell number.)
On to `Cc1cnc(C(=O)N[C@H]2COc3cc(Cl)cnc3N(C)C2=O)nc1-c1ccncc1F` [Example 120, (S)-N-(8-chloro-5-methyl-4-oxo-2,3,4,5-tetrahydro-pyrido[3,2-b][1,4]oxazepin-3-yl)-4-(3-fluoropyridin-4-yl)-5-methylpyrimidine-2-carboxamide], for which the IC50 was found to be 134 nM.

As to `Cc1cnc(C(=O)N[C@H]2COc3cc(Cl)cnc3N(C)C2=O)nc1-c1ccc(F)cn1` [Example 121, (S)-N-(8-chloro-5-methyl-4-oxo-2,3,4,5-tetrahydro-pyrido[3,2-b][1,4]oxazepin-3-yl)-4-(5-fluoropyridin-2-yl)-5-methylpyrimidine-2-carboxamide], the IC50 came out at 30.2 nM. Turning to `Cc1cnc(C(=O)N[C@H]2COc3cc(Cl)cnc3N(C)C2=O)nc1-c1cncnc1` [Example 122, (S)-N-(8-chloro-5-methyl-4-oxo-2,3,4,5-tetrahydro-pyrido[3,2-b][1,4]oxazepin-3-yl)-5-methyl-[4,5′-bipyrimidine]-2-carboxamide], the concentration for half-maximal inhibition (IC50) was found to be 144 nM. Turning to `Cc1cnc(C(=O)N[C@H]2COc3cc(Cl)cnc3N(C)C2=O)nc1-c1cnccn1` [Example 123, (S)-N-(8-chloro-5-methyl-4-oxo-2,3,4,5-tetrahydro-pyrido[3,2-b][1,4]oxazepin-3-yl)-5-methyl-4-(pyrazin-2-yl)-pyrimidine-2-carboxamide], the IC50 came out at 48.5 nM. For `Cc1cnc(C(=O)N[C@H]2COc3cc(Cl)cnc3N(C)C2=O)nc1-c1ccc2nccn2c1` [Example 124, (S)-N-(8-chloro-5-methyl-4-oxo-2,3,4,5-tetrahydropyrido[3,2-b][1,4]oxazepin-3-yl)-4-(imidazo[1,2-a]pyridin-6-yl)-5-methylpyrimidine-2-carboxamide] the value was 165 nM. `COc1cnc(C(=O)N[C@H]2COc3cc(Cl)cnc3N(C)C2=O)nc1-c1ccccc1` [Example 125, (S)-N-(8-chloro-5-methyl-4-oxo-2,3,4,5-tetrahydro-pyrido[3,2-b][1,4]oxazepin-3-yl)-5-methoxy-4-phenylpyrimidine-2-carboxamide]: the IC50 came out at 128 nM. Take `CN1C(=O)[C@@H](NC(=O)c2ncc(CO)c(-c3ccccc3)n2)COc2cc(Cl)cnc21` [Example 126, (S)-N-(8-chloro-5-methyl-4-oxo-2,3,4,5-tetrahydro-pyrido[3,2-b][1,4]oxazepin-3-yl)-5-(hydroxymethyl)-4-phenylpyrimidine-2-carboxamide]: the IC50 was 30 nM.

For the compound `CN1C(=O)[C@@H](NC(=O)c2ncc(S(C)(=N)=O)c(-c3ccccc3)n2)COc2cc(Cl)cnc21` (stereo partly drawn) [Example 127, N-((S)-8-chloro-5-methyl-4-oxo-2,3,4,5-tetrahydro-pyrido[3,2-b][1,4]oxazepin-3-yl)-5-(S-methylsulfonimidoyl)-4-phenylpyrimidine-2-carboxamide], the half-maximal inhibitory concentration (IC50) was found to be 3950 nM. For `CN1C(=O)[C@@H](NC(=O)c2ncc(Cl)c(-c3cccc(F)c3)n2)COc2cc(C#N)ccc21` [Example 128, (S)-5-chloro-N-(8-cyano-5-methyl-4-oxo-2,3,4,5-tetrahydrobenzo[b]-[1,4]oxazepin-3-yl)-4-(3-fluorophenyl)pyrimidine-2-carboxamide] the value was 16.2 nM; for `CN1C(=O)[C@@H](NC(=O)c2ncc(Cl)c(-c3ccc(F)cc3)n2)COc2cc(C#N)ccc21` [Example 129, (S)-5-chloro-N-(8-cyano-5-methyl-4-oxo-2,3,4,5-tetrahydrobenzo[b]-[1,4]oxazepin-3-yl)-4-(4-fluorophenyl)pyrimidine-2-carboxamide], 13.8 nM; for `CN1C(=O)[C@@H](NC(=O)c2ncc(Cl)c(-c3cc(F)ccc3F)n2)COc2cc(C#N)ccc21` [Example 130, (S)-5-chloro-N-(8-cyano-5-methyl-4-oxo-2,3,4,5-tetrahydrobenzo[b]-[1,4]oxazepin-3-yl)-4-(2,5-difluorophenyl)pyrimidine-2-carboxamide], 16.1 nM.

As to `CN1C(=O)[C@@H](NC(=O)c2ncc(Cl)c(-c3ccc(Cl)cc3)n2)COc2cc(C#N)ccc21` [Example 131, (S)-5-chloro-4-(4-chlorophenyl)-N-(8-cyano-5-methyl-4-oxo-2,3,4,5-tetrahydrobenzo[b]-[1,4]oxazepin-3-yl)pyrimidine-2-carboxamide], the IC50 is 22.1 nM. Next, `Cc1ccc(-c2nc(C(=O)N[C@H]3COc4cc(C#N)ccc4N(C)C3=O)ncc2Cl)cc1F` [Example 132, (S)-5-chloro-N-(8-cyano-5-methyl-4-oxo-2,3,4,5-tetrahydrobenzo[b]-[1,4]oxazepin-3-yl)-4-(3-fluoro-4-methylphenyl)pyrimidine-2-carboxamide]: 20.2 nM; `Cc1cnc(C(=O)N[C@H]2COc3cc(C#N)ccc3N(C)C2=O)nc1C12CCC(CC1)CC2` [Example 133, (S)-4-(bicyclo[2.2.2]octan-1-yl)-N-(8-cyano-5-methyl-4-oxo-2,3,4,5-tetrahydrobenzo[b]-[1,4]oxazepin-3-yl)-5-methylpyrimidine-2-carboxamide]: 160 nM. Regarding `Cc1cnc(C(=O)N[C@H]2COc3cc(C#N)ccc3N(C)C2=O)nc1C1CCOCC1` [Example 134, (S)-N-(8-cyano-5-methyl-4-oxo-2,3,4,5-tetrahydrobenzo[b]-[1,4]oxazepin-3-yl)-5-methyl-4-(tetrahydro-2H-pyran-4-yl)-pyrimidine-2-carboxamide], the IC50 came out at 246 nM. With `Cc1cnc(C(=O)N[C@H]2COc3cc(C#N)ccc3N(C)C2=O)nc1-c1cccc(F)c1` [Example 135, (S)-N-(8-cyano-5-methyl-4-oxo-2,3,4,5-tetrahydrobenzo[b]-[1,4]oxazepin-3-yl)-4-(3-fluorophenyl)-5-methylpyrimidine-2-carboxamide], the IC50 stood at 17.6 nM.

As for `Cc1cnc(C(=O)N[C@H]2COc3cc(C#N)ccc3N(C)C2=O)nc1-c1ccc(F)cc1` [Example 136, (S)-N-(8-cyano-5-methyl-4-oxo-2,3,4,5-tetrahydrobenzo[b]-[1,4]oxazepin-3-yl)-4-(4-fluorophenyl)-5-methylpyrimidine-2-carboxamide], the 50% inhibitory concentration (IC50) is 14.3 nM. As for `Cc1ccc(-c2nc(C(=O)N[C@H]3COc4cc(C#N)ccc4N(C)C3=O)ncc2C)cc1` [Example 137, (S)-N-(8-cyano-5-methyl-4-oxo-2,3,4,5-tetrahydrobenzo[b]-[1,4]oxazepin-3-yl)-5-methyl-4-(p-tolyl)pyrimidine-2-carboxamide], the half-maximal inhibitory concentration (IC50) was found to be 18.8 nM. For `CN1C(=O)[C@@H](NC(=O)c2ncc(Cl)c(-c3ccc(F)cc3F)n2)COc2cc(C#N)ccc21` [Example 138, (S)-5-chloro-N-(8-cyano-5-methyl-4-oxo-2,3,4,5-tetrahydrobenzo[b]-[1,4]oxazepin-3-yl)-4-(2,4-difluorophenyl)pyrimidine-2-carboxamide] the value was 16.4 nM; for `Cc1ccc(-c2nc(C(=O)N[C@H]3COc4cc(C#N)ccc4N(C)C3=O)ncc2Cl)c(F)c1` [Example 139, (S)-5-chloro-N-(8-cyano-5-methyl-4-oxo-2,3,4,5-tetrahydrobenzo[b]-[1,4]oxazepin-3-yl)-4-(2-fluoro-4-methylphenyl)pyrimidine-2-carboxamide], 32.6 nM; for `CN1C(=O)[C@@H](NC(=O)c2ncc(Cl)c(-c3ccc(F)cc3F)n2)COc2ccc(NCC(F)(F)CCl)cc21` [Example 140, (S)-5-chloro-N-(7-((3-chloro-2,2-difluoropropyl)amino)-5-methyl-4-oxo-2,3,4,5-tetrahydrobenzo[b]-[1,4]oxazepin-3-yl)-4-(2,4-difluorophenyl)pyrimidine-2-carboxamide], 35.4 nM. `CN1C(=O)[C@@H](NC(=O)c2ncc(Cl)c(-c3ccc(F)cc3F)n2)COc2ccc(NCC3(CCl)CCOCC3)cc21` [Example 141, (S)-5-chloro-N-(7-(((4-(chloromethyl)tetrahydro-2H-pyran-4-yl)methyl)amino)-5-methyl-4-oxo-2,3,4,5-tetrahydrobenzo[b]-[1,4]oxazepin-3-yl)-4-(2,4-difluorophenyl)pyrimidine-2-carboxamide]: the half-maximal inhibitory concentration (IC50) came out at 14.5 nM.

For the compound `CN1C(=O)[C@@H](NC(=O)c2ncc(Cl)c(-c3cc(F)ccc3F)n2)COc2ccc(NCC3(CCl)CCOCC3)cc21` [Example 142, (S)-5-chloro-N-(7-(((4-(chloromethyl)tetrahydro-2H-pyran-4-yl)methyl)amino)-5-methyl-4-oxo-2,3,4,5-tetrahydrobenzo[b]-[1,4]oxazepin-3-yl)-4-(2,5-difluorophenyl)pyrimidine-2-carboxamide], the IC50 was 19 nM. Next, `CN1C(=O)[C@@H](NC(=O)c2ncc(Cl)c(-c3ccc(F)cc3F)n2)COc2ccc(N3CCOCC3)cc21` [Example 143, (S)-5-chloro-4-(2,4-difluorophenyl)-N-(5-methyl-7-morpholino-4-oxo-2,3,4,5-tetrahydrobenzo[b]-[1,4]oxazepin-3-yl)pyrimidine-2-carboxamide]: 71 nM. For `CN1C(=O)[C@@H](NC(=O)c2ncc(Cl)c(-c3cc(F)ccc3F)n2)COc2ccc(N3CC4(CCOCC4)C3)cc21` [Example 144, (S)-5-chloro-4-(2,5-difluorophenyl)-N-(5-methyl-4-oxo-7-(7-oxa-2-azaspiro[3.5]nonan-2-yl)-2,3,4,5-tetrahydrobenzo[b]-[1,4]oxazepin-3-yl)pyrimidine-2-carboxamide] the value was 15.8 nM; for `Cc1ccc(-c2nc(C(=O)N[C@H]3COc4ccc(N5CC6(CCOCC6)C5)cc4N(C)C3=O)ncc2Cl)cc1F` [Example 145, (S)-5-chloro-4-(3-fluoro-4-methylphenyl)-N-(5-methyl-4-oxo-7-(7-oxa-2-azaspiro[3.5]nonan-2-yl)-2,3,4,5-tetrahydrobenzo[b]-[1,4]oxazepin-3-yl)pyrimidine-2-carboxamide], 11 nM; for `COCCOc1ccc2c(c1)N(C)C(=O)[C@@H](NC(=O)c1ncc(Cl)c(-c3ccc(F)cc3F)n1)CO2` [Example 146, (S)-5-chloro-4-(2,4-difluorophenyl)-N-(7-(2-methoxyethoxy)-5-methyl-4-oxo-2,3,4,5-tetrahydrobenzo[b]-[1,4]oxazepin-3-yl)pyrimidine-2-carboxamide], 19.4 nM.
